Values quoted from earlier work, collected in publication PMC8513935.

What was measured:
[1] = derived by the authors as gas->solvent minus gas->water (a hypothetical dry solvent; the ESI), not a two-phase measurement
[2] = log P octanol/water from commercial databases, averaged (the ESI); conditions: Octanol (wet), 25 C
[3] = experimental, compiled by the authors from the literature (the ESI cites the sources)

c1ccc2c(c1)-c1cccc3cccc-2c13
log K of transfer, water to solvent ([1]; 1,2-Dichloroethane, 25 C): 6.08 log10 K | log K of transfer, water to solvent ([1]; 2-Methylpropan-1-ol, 25 C): 4.66 log10 K | log K of transfer, water to solvent ([1]; 3-Methylbutan-1-ol, 25 C): 4.81 log10 K | log K of transfer, water to solvent ([1]; Acetonitrile, 25 C): 5.31 log10 K | log K of transfer, water to solvent ([1]; Benzene, 25 C): 6.02 log10 K | log K of transfer, water to solvent ([1]; Butan-1-ol, 25 C): 4.96 log10 K | log K of transfer, water to solvent ([1]; Butan-2-ol, 25 C): 4.81 log10 K | log K of transfer, water to solvent ([1]; CCl4, 25 C): 5.83 log10 K | log K of transfer, water to solvent ([1]; Chloroform, 25 C): 6.12 log10 K | log K of transfer, water to solvent ([1]; Cyclohexane, 25 C): 5.07 log10 K | log K of transfer, water to solvent ([1]; Di-n-butyl ether, 25 C): 5.41 log10 K | log K of transfer, water to solvent ([1]; Diethyl Ether, 25 C): 5.64 log10 K | log K of transfer, water to solvent ([1]; Ethanol, 25 C): 4.89 log10 K | log K of transfer, water to solvent ([1]; Heptan-1-ol, 25 C): 5.28 log10 K | log K of transfer, water to solvent ([1]; Hexadecane, 25 C): 5.38 log10 K | log K of transfer, water to solvent ([1]; Hexan-1-ol, 25 C): 5.13 log10 K | log K of transfer, water to solvent ([1]; Hexane, 25 C): 4.98 log10 K | log K of transfer, water to solvent ([1]; Methanol, 25 C): 4.74 log10 K | log K of transfer, water to solvent ([1]; Octan-1-ol(dry), 25 C): 5.17 log10 K | log K of transfer, water to solvent ([1]; Pentan-1-ol, 25 C): 5.05 log10 K | log K of transfer, water to solvent ([1]; Propan-1-ol, 25 C): 4.87 log10 K | log K of transfer, water to solvent ([1]; Propan-2-ol, 25 C): 4.72 log10 K | log K of transfer, water to solvent ([1]; Toluene, 25 C): 5.94 log10 K | log K of transfer, water to solvent [2]: 5.16 log10 K | log K of transfer, gas to solvent ([3]; 1,2-Dichloroethane, 25 C): 9.52 log10 K | log K of transfer, gas to solvent ([3]; 2-Methylpropan-1-ol, 25 C): 8.1 log10 K | log K of transfer, gas to solvent ([3]; 3-Methylbutan-1-ol, 25 C): 8.25 log10 K | log K of transfer, gas to solvent ([3]; Acetonitrile, 25 C): 8.75 log10 K | log K of transfer, gas to solvent ([3]; Benzene, 25 C): 9.46 log10 K | log K of transfer, gas to solvent ([3]; Butan-1-ol, 25 C): 8.4 log10 K | log K of transfer, gas to solvent ([3]; Butan-2-ol, 25 C): 8.25 log10 K | log K of transfer, gas to solvent ([3]; CCl4, 25 C): 9.27 log10 K | log K of transfer, gas to solvent ([3]; Chloroform, 25 C): 9.56 log10 K | log K of transfer, gas to solvent ([3]; Cyclohexane, 25 C): 8.51 log10 K | log K of transfer, gas to solvent ([3]; Di-n-butyl ether, 25 C): 8.84 log10 K | log K of transfer, gas to solvent ([3]; Diethyl Ether, 25 C): 9.08 log10 K | log K of transfer, gas to solvent ([3]; Ethanol, 25 C): 8.33 log10 K | log K of transfer, gas to solvent ([3]; Heptan-1-ol, 25 C): 8.72 log10 K | log K of transfer, gas to solvent ([3]; Hexadecane, 25 C): 8.82 log10 K | log K of transfer, gas to solvent ([3]; Hexan-1-ol, 25 C): 8.56 log10 K | log K of transfer, gas to solvent ([3]; Hexane, 25 C): 8.41 log10 K | log K of transfer, gas to solvent ([3]; Methanol, 25 C): 8.18 log10 K | log K of transfer, gas to solvent ([3]; Octan-1-ol, 25 C): 8.61 log10 K | log K of transfer, gas to solvent ([3]; Pentan-1-ol, 25 C): 8.49 log10 K | log K of transfer, gas to solvent ([3]; Propan-1-ol, 25 C): 8.31 log10 K | log K of transfer, gas to solvent ([3]; Propan-2-ol, 25 C): 8.15 log10 K | log K of transfer, gas to solvent ([3]; Toluene, 25 C): 9.38 log10 K | log K of transfer, gas to solvent ([3]; Water, 25 C): 3.44 log10 K

CCCCCl
log K of transfer, water to solvent ([1]; 1,2-Dichloroethane, 25 C): 3.13 log10 K | log K of transfer, water to solvent ([1]; 2-Methylpropan-1-ol, 25 C): 2.61 log10 K | log K of transfer, water to solvent ([1]; 2-Methylpropan-2-ol, 25 C): 2.59 log10 K | log K of transfer, water to solvent ([1]; Acetone, 25 C): 3 log10 K | log K of transfer, water to solvent ([1]; Butan-2-ol, 25 C): 2.61 log10 K | log K of transfer, water to solvent ([1]; CCl4, 25 C): 3.04 log10 K | log K of transfer, water to solvent ([1]; Chlorobenzene, 25 C): 3.07 log10 K | log K of transfer, water to solvent ([1]; Decan-1-ol, 25 C): 2.57 log10 K | log K of transfer, water to solvent ([1]; Di-n-butyl ether, 25 C): 2.89 log10 K | log K of transfer, water to solvent ([1]; Diethyl Ether, 25 C): 3.09 log10 K | log K of transfer, water to solvent ([1]; Hexadecane, 25 C): 2.6 log10 K | log K of transfer, water to solvent ([1]; Hexane, 25 C): 2.83 log10 K | log K of transfer, water to solvent ([1]; Octan-1-ol(dry), 25 C): 2.6 log10 K | log K of transfer, water to solvent ([1]; Propan-1-ol, 25 C): 2.51 log10 K | log K of transfer, water to solvent [2]: 2.64 log10 K | log K of transfer, gas to solvent ([3]; 1,2-Dichloroethane, 25 C): 3.25 log10 K | log K of transfer, gas to solvent ([3]; 2-Methylpropan-1-ol, 25 C): 2.73 log10 K | log K of transfer, gas to solvent ([3]; 2-Methylpropan-2-ol, 25 C): 2.71 log10 K | log K of transfer, gas to solvent ([3]; Butan-2-ol, 25 C): 2.73 log10 K | log K of transfer, gas to solvent ([3]; CCl4, 25 C): 3.16 log10 K | log K of transfer, gas to solvent ([3]; Chlorobenzene, 25 C): 3.19 log10 K | log K of transfer, gas to solvent ([3]; Decan-1-ol, 25 C): 2.69 log10 K | log K of transfer, gas to solvent ([3]; Di-n-butyl ether, 25 C): 3.01 log10 K | log K of transfer, gas to solvent ([3]; Diethyl Ether, 25 C): 3.21 log10 K | log K of transfer, gas to solvent ([3]; Hexadecane, 25 C): 2.72 log10 K | log K of transfer, gas to solvent ([3]; Hexane, 25 C): 2.95 log10 K | log K of transfer, gas to solvent ([3]; Octan-1-ol, 25 C): 2.72 log10 K | log K of transfer, gas to solvent ([3]; Propan-1-ol, 25 C): 2.63 log10 K | log K of transfer, gas to solvent ([3]; Propanone, 25 C): 3.12 log10 K | log K of transfer, gas to solvent ([3]; Water, 25 C): 0.12 log10 K
